Among the data in US11325913B2, “Compounds and methods for the treatment of malaria” (THE BROAD INSTITUTE, INC., priority 2013, dated 2022) are EC50 values, retold here.

Each structure is given as a SMILES string.

The EC50 is the midpoint of the concentration-response curve. High values mean a need for much substance, low ones an effect from little substance.

This test has as its system P. falciparum Dd2. The experiment in a line: Activity against the Dd2 strain of P. falciparum (SYBR Green I, 72 h). The format is cell-based. Particulars: Plasmodium falciparum, DD2, 72 h, P. falciparum Dd2, 72 h incubation. Here is the method: The Dd2 strain of P. falciparum was cultured in complete medium (RPMI with L-glutamine, 4.3% heat-inactivated O-positive human serum, 2.08 mg/ml albumax, 0.013 mg/ml hypoxanthine, 1.17 mg/ml glucose, 0.18% NaHCO3, 0.031 M Hepes, 2.60 mM NaOH, and 0.043 mg/ml gentamicin) until the parasitemia reached 3-8%. Parasitemia was determined by checking at least 500 red blood cells from a Giemsa-stained blood smear. The Dd2 cultures along with tested O-positive red blood cells were centrifuged at room temperature at 2,000 rpm for 5 minutes using an Eppendorf centrifuge 5810R with an A-4-81 rotor. The medium was aspirated off. For the compound screening, a parasite dilution at a 1% parasitemia and 1.0% hematocrit was created with screening medium (RPMI with L-glutamine, 4.16 mg/ml albumax II, 0.013 mg/ml hypoxanthine, 1.73 mg/ml glucose, 0.18% NaHCO3, 0.031 M Hepes, 2.60 mM NaOH, and 0.043 mg/ml gentamicin). The suspension was gassed with 93% nitrogen, 4% carbon dioxide, and 3% oxygen and placed at 37° C. until needed. Using a liquid dispenser, 20 μl of screening medium was dispensed into 384-well, black, clear-bottom plates. With a PinTool, 100 nl of compounds dissolved in DMSO was transferred into the assay plates along with control compound (mefloquine). Next, 30 μl of the parasite suspension in screening medium was then dispensed into the assay plates such that the final parasitemia was 1% and the final hematocrit was 1.0%. Final concentration of DMSO was 0.125%. Mefloquine at a final concentration of 20 μM and DMSO at a final concentration of 0.125% were used within the assay plates to serve as background and baseline controls, respectively. The assay plates were transferred to incubators (93% nitrogen, 4% carbon dioxide, and 3% oxygen during the 72 h incubation at 37° C.). Ten microliters of detection reagent consisting of 10×SYBR Green I (Invitrogen; supplied in 10,000× concentration) in lysis buffer (20 mM Tris-HCl, 5 mM EDTA, 0.16% Saponin wt/vol, 1.6% Triton X vol/vol) was dispensed into the assay plates. For optimal staining, the assay plates were left at room temperature for 24 h in the dark. The assay plates were read by using an Envision (PerkinElmer) reader, with 505 dichroic mirrors with 485-nm excitation and 530-nm emission settings, and the plate reads were from the bottom.
By following the above-described protocol, the 50% effective concentration (EC50) for compounds 1-95 was measured against P. falciparum Dd2 and the results are shown in Table 2: […]

Turning to `O=C(Nc1cccc(F)c1)N1CCCCN2[C@H](CO)[C@H](c3ccc(C#Cc4ccccc4)cc3)[C@@H]2C1` [Compound 13, (8R,9R,10S)-N-(3-fluorophenyl)-10-(hydroxymethyl)-9-(4-(phenylethynyl)phenyl)-1,6-diazabicyclo[6.2.0] decane-6-carboxamide], it took 44 nM to reach a half-maximal effect (EC50).

As for `COCC#Cc1ccc([C@@H]2[C@H](CO)N3CCCCN(S(=O)(=O)c4ccc(OC)cc4)C[C@@H]23)cc1` [Compound 20, ((8R,9S,10R)-6-((4-methoxyphenyl)sulfonyl)-9-(4-(3-methoxyprop-1-yn-1-yl)phenyl)-1,6-diazabicyclo[6.2.0]decan-10-yl)methanol], the midpoint of the response, the EC50, lay at 1330 nM. This EC50 lies about 30-fold higher than the previous one.

As to `COc1ccc(NC(=O)N2CCCCN3[C@H](COCCC(=O)O)[C@H](c4ccc(C#Cc5ccccc5)cc4)[C@@H]3C2)cc1` [Compound 80, 3-(((8R,9R,10S)-6-((4-methoxyphenyl)carbamoyl)-9-(4-(phenylethynyl)phenyl)-1,6-diazabicyclo[6.2.0]decan-10-yl)methoxy)propanoic acid], the EC50 was found to be 23 nM. Compared with the last compound, the EC50 is about 58-fold lower.

`COc1ccc(NC(=O)N2CCCCN3[C@H](CO)[C@H](c4ccc(-c5ccc(F)cc5)cc4)[C@@H]3C2)cc1` [Compound 42, (8R,9R,10S)-9-[4-(4-fluorophenyl)phenyl]-10-(hydroxymethyl)-N-(4-methoxyphenyl)-1,6-diazabicyclo[6.2.0] decane-6-carboxamide] registered an EC50 of 9680 nM.

On to `COc1ccccc1NC(=O)N1CCCCN2[C@H](CO)[C@H](c3ccc(C#CC4CC4)cc3)[C@H]2C1` [Compound 14, (8S,9R,10S)-9-(4-(cyclopropylethynyl)phenyl)-10-(hydroxymethyl)-N-(2-methoxyphenyl)-1,6-diazabicyclo[6.2.0] decane-6-carboxamide], for which a half-maximal effect (EC50) was put at 1200 nM.

Turning to `COc1ccc(NC(=O)N2CCCCN3[C@@H](CN(C)C)[C@H](c4ccc(C#Cc5ccccc5)cc4)[C@@H]3C2)cc1` [Compound 92, (8R,95S,10R)-10-((dimethylamino)methyl)-N-(4-methoxyphenyl)-9-(4-(phenylethynyl)phenyl)-1,6-diazabicyclo[6.2.0] decane-6-carboxamide], the EC50 is 108 nM.

As to `COc1ccc(CN2CCCCN3[C@H](CO)[C@H](c4ccc(C#Cc5ccccc5)cc4)[C@@H]3C2)cc1` [Compound 63, [(8R,9R,10S)-6-[(4-methoxyphenyl)methyl]-9-[4-(2-phenylethynyl)phenyl]-1,6-diazabicyclo[6.2.0]decan-10-yl]methanol], the concentration for a half-maximal effect (EC50) came to 1230 nM. Compared with the last compound, the EC50 is about 11-fold higher.

The compound `O=C(Nc1ccccc1F)N1CCCCN2[C@H](CO)[C@H](c3ccc(C#Cc4ccccc4)cc3)[C@@H]2C1` [Compound 49, (8R,9R,10S)-N-(2-fluorophenyl)-10-(hydroxymethyl)-9-[4-(2-phenylethynyl)phenyl]-1,6-diazabicyclo[6.2.0] decane-6-carboxamide] yielded a concentration for a half-maximal effect (EC50) of 65 nM.

On to `COc1ccc(NC(=O)N2CCCCN3[C@H](CN4CCC(C)(O)CC4)[C@H](c4ccc(C#Cc5ccccc5)cc4)[C@@H]3C2)cc1` [Compound 33, (8R,9S,10S)-10-[(4-hydroxy-4-methylpiperidin-1-yl)methyl]-N-(4-methoxyphenyl)-9-[4-(2-phenylethynyl)phenyl]-1,6-diazabicyclo[6.2.0] decane-6-carboxamide], for which the EC50 was found to be 2320 nM.

As to `COc1ccc(NC(=O)N2CCCCN3[C@H](CN(C)C(C)=O)[C@H](c4ccc(C#Cc5ccccc5)cc4)[C@@H]3C2)cc1` [Compound 76, (8R,9S,10S)-N-(4-methoxyphenyl)-10-[(N-methylacetamido)methyl]-9-[4-(2-phenylethynyl)phenyl]-1,6-diazabicyclo[6.2.0] decane-6-carboxamide], it took 8 nM to reach a half-maximal effect (EC50).

On to `COc1ccc(N(C)C(=O)N2CCCCN3[C@H](CO)[C@H](c4ccc(C#Cc5ccccc5)cc4)[C@@H]3C2)cc1` [Compound 62, (8R,9R,10S)-10-(hydroxymethyl)-N-(4-methoxyphenyl)-N-methyl-9-[4-(2-phenylethynyl)phenyl]-1,6-diazabicyclo[6.2.0] decane-6-carboxamide], for which the EC50 came out at 4430 nM. This EC50 is about 550-fold higher than that of the compound before.

As for `COc1ccc(NC(=O)N2CCCCN3[C@H](CO)[C@H](c4ccc(C#CC5CCCCC5)cc4)[C@@H]3C2)cc1` [Compound 45, (8R,9R,10S)-9-[4-(2-cyclohexylethynyl)phenyl]-10-(hydroxymethyl)-N-(4-methoxyphenyl)-1,6-diazabicyclo[6.2.0] decane-6-carboxamide], the EC50 is 846 nM.

`COc1ccc(NC(=O)N2CCCCN3[C@H](CO)[C@H](c4ccc(-c5csc(-c6ccccc6)n5)cc4)[C@@H]3C2)cc1` [Compound 39, (8R,9R,10S)-10-(hydroxymethyl)-N-(4-methoxyphenyl)-9-[4-(2-phenyl-1,3-thiazol-4-yl)phenyl]-1,6-diazabicyclo[6.2.0] decane-6-carboxamide] gave a half-maximal effective concentration (EC50) of 5170 nM.

Take `O=C(Nc1ccccc1)N1CCCCN2[C@H](CO)[C@H](c3ccc(C#Cc4ccccc4)cc3)[C@@H]2C1` [Compound 30, (8R,9R,10S)-10-(hydroxymethyl)-N-phenyl-9-(4-(phenylethynyl)phenyl)-1,6-diazabicyclo[6.2.0] decane-6-carboxamide]: the EC50 was determined as 42 nM.

As for `COc1ccc(NC(=O)N2CCCCN3[C@@H](CNC(C)=O)[C@H](c4ccc(C#Cc5ccccc5)cc4)[C@@H]3C2)cc1` [Compound 82, (8R,9S,10R)-10-(acetamidomethyl)-N-(4-methoxyphenyl)-9-(4-(phenylethynyl)phenyl)-1,6-diazabicyclo[6.2.0] decane-6-carboxamide], the EC50 worked out at 3 nM. Against the preceding compound, the EC50 is about 14-fold lower.

Regarding `COc1ccc(NC(=O)N2CCCCN3[C@H](CN4CCN(C)CC4)[C@H](c4ccc(C#Cc5ccccc5)cc4)[C@@H]3C2)cc1` [Compound 32, (8R,9S,10S)-N-(4-methoxyphenyl)-10-[(4-methylpiperazin-1-yl)methyl]-9-[4-(2-phenylethynyl)phenyl]-1,6-diazabicyclo[6.2.0] decane-6-carboxamide], the 50% effective concentration (EC50) is 158 nM.

With `O=S(=O)(c1ccc(F)cc1)N1CCCCN2[C@@H](CO)[C@@H](c3ccc(C4=CCCCC4)cc3)[C@@H]2C1` [Compound 5, ((8R,9S,10R)-6-((4-fluorophenyl)sulfonyl)-9-(2′,3′,4′,5′-tetrahydro-[1,1′-biphenyl]-4-yl)-1,6-diazabicyclo[6.2.0]decan-10-yl)methanol], the half-maximal effective concentration (EC50) amounted to 1070 nM.

The compound `COc1ccc(NC(=O)N2CCCCN3[C@H](CNC(C)=O)[C@H](c4ccc(C#Cc5ccccn5)cc4)[C@@H]3C2)cc1` [Compound 65, (8R,9S,10S)-10-(acetamidomethyl)-N-(4-methoxyphenyl)-9-{4-[2-(pyridin-2-yl)ethynyl]phenyl}-1,6-diazabicyclo[6.2.0] decane-6-carboxamide] registered a concentration for a half-maximal effect (EC50) of 110 nM.

Regarding `COc1ccc(NC(=O)N2CCCN3[C@H](CO)[C@H](c4ccc(C#Cc5ccccc5)cc4)[C@@H]3C2)cc1` [Compound 79, (7R,8R,9S)-9-(hydroxymethyl)-N-(4-methoxyphenyl)-8-[4-(2-phenylethynyl)phenyl]-1,5-diazabicyclo[5.2.0] nonane-5-carboxamide], a half-maximal response (EC50) required 850 nM.

In turn, `OC[C@H]1[C@@H](c2ccc(-c3cccc(F)c3)cc2)[C@@H]2CN(CCC(F)(F)F)CCCCN12` [Compound 16, ((8R,9S,10R)-9-(3′-fluoro-[1,1′-biphenyl]-4-yl)-6-(3,3,3-trifluoropropyl)-1,6-diazabicyclo[6.2.0]decan-10-yl)methanol] returned an EC50 of 618 nM.
